Target: wtTaq polymerase (Thermus aquaticus, UniProt P19821)
Assay: gel-based steady-state single nucleotide incorporation, […]-labelled primer
Assay type: biochemical
Conditions: 1 x Taq buffer, 60 °C

wtTaq polymerase, sequence (P19821 whole entry): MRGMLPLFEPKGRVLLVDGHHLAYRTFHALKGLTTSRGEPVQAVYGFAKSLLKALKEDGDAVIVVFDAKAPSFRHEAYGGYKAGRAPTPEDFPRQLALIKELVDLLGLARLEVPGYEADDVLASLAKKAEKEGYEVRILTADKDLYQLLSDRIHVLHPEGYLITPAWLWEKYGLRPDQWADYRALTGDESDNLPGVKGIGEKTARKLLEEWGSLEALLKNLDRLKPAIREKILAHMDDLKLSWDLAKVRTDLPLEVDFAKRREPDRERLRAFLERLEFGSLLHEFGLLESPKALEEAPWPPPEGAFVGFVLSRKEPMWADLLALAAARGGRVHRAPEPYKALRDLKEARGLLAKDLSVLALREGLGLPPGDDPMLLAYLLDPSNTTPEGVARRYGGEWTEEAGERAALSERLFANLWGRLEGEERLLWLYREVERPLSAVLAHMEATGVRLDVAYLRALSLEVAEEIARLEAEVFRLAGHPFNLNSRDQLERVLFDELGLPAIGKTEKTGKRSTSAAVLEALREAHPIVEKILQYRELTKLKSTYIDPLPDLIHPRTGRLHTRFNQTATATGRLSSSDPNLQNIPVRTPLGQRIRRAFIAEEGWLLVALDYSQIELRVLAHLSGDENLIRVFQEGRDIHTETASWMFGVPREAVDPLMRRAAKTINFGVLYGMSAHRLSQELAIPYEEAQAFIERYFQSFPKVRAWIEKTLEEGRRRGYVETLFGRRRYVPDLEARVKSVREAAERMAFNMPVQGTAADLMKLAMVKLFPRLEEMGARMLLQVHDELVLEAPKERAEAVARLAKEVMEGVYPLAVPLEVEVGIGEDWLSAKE

`Nc1ncnc2c1ncn2[C@H]1C[C@H](O)[C@@H](COP(=O)(O)OP(=O)(O)OP(=O)(O)O)O1` [dATP] was tested, and the Km (opposite template d5NI or d5NIC) was “incorporation of dNTPs opposite template d5NIC”.

`Nc1nc2c(ncn2[C@H]2C[C@H](O)[C@@H](COP(=O)(O)OP(=O)(O)OP(=O)(O)O)O2)c(=O)[nH]1` [dGTP] was tested, and the Km (opposite template dC) was “incorporation of dTTP opposite dA or dGTP opposite dC”.

With `Cc1cn([C@H]2C[C@H](O)[C@@H](COP(=O)(O)OP(=O)(O)OP(=O)(O)O)O2)c(=O)[nH]c1=O` [dTTP] the Km (opposite template dA) was “incorporation of dTTP opposite dA or dGTP opposite dC”.

Source: PMC2762193 (Journal of the American Chemical Society, 2009)
